Tests used:
Aurora kinase C = Aurora kinase C (Homo sapiens, UniProt Q9UQB9); assay: Inhibition of Aurora C kinase (unknown origin)
Aurora kinase B [1] = target: T1, Aurora kinase B (Homo sapiens, UniProt Q96GD4); assay: Inhibition of recombinant aurora B (unknown origin)
[2] = Oral bioavailability in fasted mouse at 5 mg/kg administered as single dose by orogastric gavage by LC-MS/MS analysis; type: ADME, organism-based; settings: in vivo
[3] = Half life in fasted mouse at 5 mg/kg administered as single dose by orogastric gavage by LC-MS/MS analysis; type: ADME, organism-based; settings: in vivo, po
[4] = Oral bioavailability in fasted rat at 5 mg/kg administered as single dose by orogastric gavage by LC-MS/MS analysis; type: ADME, organism-based; settings: in vivo
[5] = Half life in fasted rat at 5 mg/kg administered as single dose by orogastric gavage by LC-MS/MS analysis; type: ADME, organism-based; settings: in vivo, po
[6] = Oral bioavailability in fasted dog at 2 mg/kg administered as single dose by orogastric gavage by LC-MS/MS analysis; type: ADME, organism-based, Canis lupus familiaris; settings: in vivo
[7] = Half life in fasted dog at 2 mg/kg administered as single dose by orogastric gavage by LC-MS/MS analysis; type: ADME, organism-based, Canis lupus familiaris; settings: in vivo, po
[8] = Oral bioavailability in fasted monkey at 2 mg/kg administered as single dose by orogastric gavage by LC-MS/MS analysis; type: ADME, organism-based, Macaca mulatta; settings: rhesus monkey, in vivo
[9] = Half life in fasted monkey at 2 mg/kg administered as single dose by orogastric gavage by LC-MS/MS analysis; type: ADME, organism-based, Macaca mulatta; settings: rhesus monkey, in vivo, po
HCT-116 [10] = assay: Antitumor activity against human HCT116 cells xenografted in mouse assessed as inhibition of tumor growth at 15 to 60 mg/kg, po; type: functional
[11] = Growth inhibition of in human myeloma cells; type: functional, cell-based
HCT-116 [12] = assay: Growth inhibition of human HCT116 cells by XTT assay; type: functional, cell-based
KCL-22 = assay: Induction of apoptosis in human KCL22 cells by Annexin V staining based assay; type: functional, cell-based
HT-29 = assay: Growth inhibition of human HT-29 cells by XTT assay; type: functional, cell-based
HeLa = assay: Growth inhibition of human HeLa cells by XTT assay; type: functional, cell-based
PC-3 [13] = assay: Antitumor activity against human PC3 cells xenografted in nude mouse assessed as inhibition of tumor growth at 10 mg/kg, po qd; type: functional; settings: PC-3, po, read-out: TGI
PC-3 [14] = assay: Antitumor activity against human PC3 cells xenografted in nude mouse assessed as inhibition of tumor growth at 30 mg/kg, po qd; type: functional; settings: PC-3, po, read-out: TGI
HCC1143 = assay: Antiproliferation activity against human HCC1143 cells assessed as inhibition of cell proliferation; type: functional, cell-based
MCF7 = assay: Antiproliferation activity against human MCF7 cells assessed as inhibition of cell proliferation; type: functional, cell-based
HCC1806 = assay: Antiproliferation activity against human HCC1806 cells assessed as inhibition of cell proliferation; type: functional, cell-based
AU565 = assay: Antiproliferation activity against human AU565 cells assessed as inhibition of cell proliferation; type: functional, cell-based
CAL-85-1 = assay: Antiproliferation activity against human CAL851 cells assessed as inhibition of cell proliferation; type: functional, cell-based
[15] = Plasma concentration in F344/N Jcl-rnu rat xenografted with luciferase expressing human HeLa cells at 16 mg/kg, po BID for 2 days; type: ADME, organism-based
[16] = Plasma concentration in F344/N Jcl-rnu rat xenografted with luciferase expressing human HeLa cells at 32 mg/kg, po BID for 2 days; type: ADME, organism-based
HCT-116 [17] = assay: Antitumor activity against human HCT116 cells xenografted in SCID mouse assessed as reduction in tumor bulk at 15 mg/kg, po bid for 12 days relative to untreated control; type: functional
HCT-116 [18] = assay: Antitumor activity against human HCT116 cells xenografted in SCID mouse assessed as reduction in tumor bulk at 30 mg/kg, po bid for 12 days relative to untreated control; type: functional
SW48 [19] = assay: Antitumor activity against human SW48 cells xenografted in nude rat assessed as reduction in tumor growth at 15 mg/kg, po administered twice daily for 2 days per week measured on day 10 relative to untreated control; type: functional
SW48 [20] = assay: Antitumor activity against human SW48 cells xenografted in nude rat assessed as reduction in tumor growth at 45 mg/kg, po administered twice daily for 2 days per week measured on day 10 relative to untreated control; type: functional
SW48 [21] = assay: Antitumor activity against human SW48 cells xenografted in nude rat assessed as reduction in tumor growth at 15 mg/kg, po administered twice daily for 2 days per week for 3 weeks and measured on day 27 relative to untreated control; type: functional
SW48 [22] = assay: Antitumor activity against human SW48 cells xenografted in nude rat assessed as reduction in tumor growth at 45 mg/kg, po administered twice daily for 2 days per week for 3 weeks and measured on day 27 relative to untreated control; type: functional
Aurora kinase B [23] = target: T1, Aurora kinase B; assay: Inhibition of full-length His-tagged recombinant aurora B (unknown origin) expressed in insect cells using biotinylated LRRWSLG substrate by scintillation proximity assay
Aurora kinase B [24] = target: T1, Aurora kinase B; assay: Inhibition of aurora B in human MDA-MB-231 cells assessed as reduction in enzyme autophosphorylation incubated for 4 hrs by high-content immunofluorescence imaging; type: cell-based
Aurora kinase B [25] = target: T1, Aurora kinase B; assay: Inhibition of aurora B in human MDA-MB-231 cells assessed as reduction in phosphorylation of histone H3 on Ser10 incubated for 4 hrs by high-content immunofluorescence imaging; type: cell-based
HCT-116 [26] = assay: Antitumor activity against human HCT116 cells xenografted in mouse assessed as inhibition of tumor growth at 20 mg/kg, po qd for 10 days; type: functional; settings: HCT-116, po, 240 h, read-out: TGI
[27] = Growth inhibition of in human QGP1 cells incubated for 72 hrs; type: functional, cell-based; settings: QGP-1, 72 h
[28] = Growth inhibition of in human BON1 cells incubated for 72 hrs; type: functional, cell-based
[29] = Growth inhibition of in human MIP101 cells incubated for 72 hrs; type: functional, cell-based
[30] = Suppression of cell mitosis in human multiple myeloma cells; type: functional
MM1.S [31] = assay: Antitumor activity against human MM1S cells xenografted in gamma-irradiated CB17 SCID mouse assessed as inhibition of tumor growth at 15 mg/kg, po dosed daily for 21 days; type: functional; settings: light or radiation study, 504 h, read-out: TGI
MM1.S [32] = assay: Antitumor activity against human MM1S cells xenografted in gamma-irradiated CB17 SCID mouse assessed as inhibition of tumor growth at 30 mg/kg, po dosed daily for 21 days; type: functional; settings: light or radiation study, 504 h, read-out: TGI

T1 sequence (Q96GD4 whole entry): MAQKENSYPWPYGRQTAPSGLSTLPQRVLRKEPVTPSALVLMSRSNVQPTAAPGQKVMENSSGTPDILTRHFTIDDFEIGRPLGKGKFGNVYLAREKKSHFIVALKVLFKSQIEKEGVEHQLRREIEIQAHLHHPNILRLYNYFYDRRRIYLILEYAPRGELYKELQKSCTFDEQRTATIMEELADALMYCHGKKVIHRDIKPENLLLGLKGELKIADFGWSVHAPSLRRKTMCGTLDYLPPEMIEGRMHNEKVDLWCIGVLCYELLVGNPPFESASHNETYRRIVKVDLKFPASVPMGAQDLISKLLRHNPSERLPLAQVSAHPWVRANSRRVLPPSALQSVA
Aurora kinase C, sequence (Q9UQB9 whole entry): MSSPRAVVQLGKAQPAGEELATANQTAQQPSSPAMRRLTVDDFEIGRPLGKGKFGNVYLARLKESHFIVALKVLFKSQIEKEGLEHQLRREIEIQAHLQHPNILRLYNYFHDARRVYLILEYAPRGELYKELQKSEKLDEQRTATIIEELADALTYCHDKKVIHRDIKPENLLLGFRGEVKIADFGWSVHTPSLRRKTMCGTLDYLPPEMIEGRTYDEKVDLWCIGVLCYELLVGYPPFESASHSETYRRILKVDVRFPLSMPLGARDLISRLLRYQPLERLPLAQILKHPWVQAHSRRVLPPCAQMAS

**Q.** With `Cc1csc(-c2nnc(Nc3ccc(Oc4ncccc4-c4ccnc(N)n4)cc3)c3ccccc23)c1` [AMG-900] as the molecule, how does the IC50 (Aurora kinase C) read?
**A.** 1 nM

**Q.** What about the IC50 (Aurora kinase B [1]) of the same molecule?
**A.** 4 nM

**Q.** What about the bioavailability [2] of the same molecule?
**A.** 31 to 107%

**Q.** And the half-life [3]?
**A.** 0.6 to 2.4 h

**Q.** And the bioavailability [4]?
**A.** 31 to 107%

**Q.** And the half-life [5]?
**A.** 0.6 to 2.4 h

**Q.** And the bioavailability [6]?
**A.** 31 to 107%

**Q.** And the half-life [7]?
**A.** 0.6 to 2.4 h

**Q.** What about the bioavailability [8] of the same molecule?
**A.** 31 to 107%

**Q.** What about the half-life [9] of the same molecule?
**A.** 0.6 to 2.4 h

**Q.** With `CCc1cccc(CC)c1NC(=O)N1Cc2[nH]nc(NC(=O)c3ccc(N4CCN(C)CC4)cc3)c2C1` [PHA-680632] as the molecule, how does the TGI (HCT-116 [10]) read?
**A.** 70%

**Q.** Which IC50 [11] does the source give for `Cc1cc(Nc2cc(N3CCN(C)CC3)nc(/C=C/c3ccccc3)n2)n[nH]1` [ENMD-2076] here?
**A.** 2990 to 7060 nM

**Q.** Which results are given for `CCN1CCN(C(=O)Cc2ccc(Nc3ncc(F)c(Nc4ccc(C(=O)Nc5ccccc5Cl)cc4)n3)cc2)CC1`?
**A.** IC50 (HCT-116 [12]): 190 to 378 nM; IC50 (KCL-22): 5000 nM; IC50 (HT-29): 5600 nM; IC50 (HeLa): 416 nM

**Q.** What does the source list for `O=C(O)c1ccc(Nc2ncc3c(n2)-c2ccc(Cl)cc2C(c2c(F)cccc2F)=NC3)cc1` [MLN-8054]?
**A.** inhibition in vivo at 10 mg/kg (PC-3 [13]): 76%; inhibition in vivo at 30 mg/kg (PC-3 [14]): 84%

**Q.** With `O=C(O)[C@]1(Cc2cccc(Nc3nccs3)n2)CC[C@@H](Oc2cccc(Cl)c2F)CC1` [MK-5108] as the molecule, how does the IC50 (HCC1143) read?
**A.** 420 nM

**Q.** What about the IC50 (MCF7) of the same molecule?
**A.** 520 nM

**Q.** What about the IC50 (HCC1806) of the same molecule?
**A.** 560 nM

**Q.** And the IC50 (AU565)?
**A.** 450 nM

**Q.** What about the IC50 (CAL-85-1) of the same molecule?
**A.** 740 nM

**Q.** What about the concentration at 48 h [15] of the same molecule?
**A.** 1.7 µM

**Q.** What about the concentration at 48 h [16] of the same molecule?
**A.** 4.4 µM

**Q.** And the T/C (HCT-116 [17])?
**A.** 10%

**Q.** And the T/C (HCT-116 [18])?
**A.** 6%

**Q.** And the T/C (SW48 [19])?
**A.** 35%

**Q.** What about the T/C (SW48 [20]) of the same molecule?
**A.** 7%

**Q.** And the T/C (SW48 [21])?
**A.** 58%

**Q.** What about the T/C (SW48 [22]) of the same molecule?
**A.** 32%

**Q.** Which IC50 (Aurora kinase B [23]) does the source give for `CC(=O)NCC(=O)N1[C@@H]2CC[C@H]1c1ccc(Nc3ncc(C(F)(F)F)c(NC4CCC4)n3)cc12` [PF-03814735] here?
**A.** 5 nM

**Q.** And the IC50 (Aurora kinase B [24])?
**A.** 11 nM

**Q.** And the IC50 (Aurora kinase B [25])?
**A.** 50 nM

**Q.** What about the inhibition in vivo at 20 mg/kg (HCT-116 [26]) of the same molecule?
**A.** ≤ 50%

**Q.** Which results are given for `COc1cc2c(Nc3ccc(NC(=O)c4ccccc4)cc3)ncnc2cc1OCCCN1CCOCC1`?
**A.** IC50 [27]: 900 nM; IC50 [28]: 3000 nM; IC50 [29]: 3000 nM

**Q.** Which IC50 [30] does the source give for `COc1cc(Nc2ncc3c(n2)-c2ccc(Cl)cc2C(c2c(F)cccc2OC)=NC3)ccc1C(=O)O` [ALISERTIB] here?
**A.** 3 to 1710 nM

**Q.** And the inhibition in vivo at 15 mg/kg (MM1.S [31])?
**A.** 42%

**Q.** And the inhibition in vivo at 30 mg/kg (MM1.S [32])?
**A.** 80%
